This note sets out measurements from ChEMBL document CHEMBL2074440, “Molecular cloning, chromosomal localization, and functional characterization of a human liver Na+/bile acid cotransporter” (J Clin Invest, 1994).

Structures are written as SMILES.

Holding throughout (design): scale not given: the % may be the effect or the level left
Data set [1] concerns the target T1, Hepatic sodium/bile acid cotransporter (Homo sapiens, UniProt Q14973).
T1 sequence (Q14973 whole entry): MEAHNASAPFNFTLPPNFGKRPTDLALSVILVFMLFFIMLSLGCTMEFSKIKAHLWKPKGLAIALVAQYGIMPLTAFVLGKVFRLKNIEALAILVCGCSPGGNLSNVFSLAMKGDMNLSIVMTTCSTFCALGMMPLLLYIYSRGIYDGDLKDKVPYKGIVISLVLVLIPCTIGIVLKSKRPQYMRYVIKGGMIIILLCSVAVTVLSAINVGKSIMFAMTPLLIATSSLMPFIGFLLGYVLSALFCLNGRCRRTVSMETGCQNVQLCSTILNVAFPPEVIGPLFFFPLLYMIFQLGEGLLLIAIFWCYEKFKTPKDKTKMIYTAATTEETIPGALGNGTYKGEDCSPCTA
Nature of the data set: TP_TRANSPORTER: inhibition of Taurocholate uptake (Taurochorate: 10 uM, UDCA: 100 uM) in Xenopus laevis oocytes. It counts as functional, cell-based, Oocyte. As to conditions: probe taurocholate (10 uM), read-out: Activity.

For data set [2], the target named is T1, Hepatic sodium/bile acid cotransporter. The data set is described as follows: TP_TRANSPORTER: inhibition of Taurocholate uptake (Taurochorate: 10 uM, GCDCA: 100 uM) in Xenopus laevis oocytes. The data set is classed as functional, cell-based, Oocyte. Particulars: probe taurocholate (10 uM), read-out: Activity.
For data set [3] the target is unchanged. The data set is described as follows: TP_TRANSPORTER: inhibition of Taurocholate uptake (Taurochorate: 10 uM, CDCA: 100 uM) in Xenopus laevis oocytes. As to conditions: oocyte. It counts as functional, cell-based.
Data set [4] has the same target. The data set is described as follows: TP_TRANSPORTER: inhibition of Taurocholate uptake (Taurochorate: 10 uM, Bumetanide: 500 uM) in Xenopus laevis oocytes. It counts as functional, cell-based. As to conditions: oocyte.
Data set [5] shares this target. Nature of the data set: TP_TRANSPORTER: inhibition of Taurocholate uptake (Taurochorate: 10 uM, Glycholithocholate: 100 uM) in Xenopus laevis oocytes. As to conditions: probe taurocholate (10 uM), read-out: Activity. It counts as functional, cell-based, Oocyte.
The target is the same in data set [6]. Nature of the data set: TP_TRANSPORTER: inhibition of Taurocholate uptake (Taurochorate: 10 uM, BSP: 100 uM) in Xenopus laevis oocytes. It counts as functional, cell-based, Oocyte. As to conditions: probe taurocholate (10 uM), read-out: Activity.
The target is the same in data set [7]. The data set is described as follows: TP_TRANSPORTER: inhibition of Taurocholate uptake (Taurochorate: 10 uM, TDCA: 100 uM) in Xenopus laevis oocytes. The data set is classed as functional, cell-based. As to conditions: oocyte.
For data set [8] the target is unchanged. The data set is described as follows: TP_TRANSPORTER: inhibition of Taurocholate uptake (Taurochorate: 10 uM, GC: 100 uM) in Xenopus laevis oocytes. The data set is classed as functional, cell-based. Particulars: oocyte.
The target is the same in data set [9]. Nature of the data set: TP_TRANSPORTER: inhibition of Taurocholate uptake (Taurochorate: 10 uM, Taurolithocholate: 100 uM) in Xenopus laevis oocytes. It counts as functional, cell-based, Oocyte. As to conditions: probe taurocholate (10 uM), read-out: Activity.
Data set [10] shares this target. Nature of the data set: TP_TRANSPORTER: inhibition of Taurocholate uptake (Taurochorate: 10 uM, Lithocholate: 100 uM) in Xenopus laevis oocytes. The data set is classed as functional, cell-based, Oocyte. Particulars: probe taurocholate (10 uM), read-out: Activity.
Data set [11] shares this target. The data set is described as follows: TP_TRANSPORTER: inhibition of Taurocholate uptake (Taurochorate: 10 uM, TCDC: 100 uM) in Xenopus laevis oocytes. The data set is classed as functional, cell-based. Particulars: oocyte.
For data set [12] the target is unchanged. Nature of the data set: TP_TRANSPORTER: inhibition of Taurocholate uptake (Taurochorate: 10 uM, TUDC: 100 uM) in Xenopus laevis oocytes. The data set is classed as functional, cell-based. Particulars: oocyte.

Regarding `C[C@H](CCC(=O)O)[C@H]1CC[C@H]2[C@@H]3[C@@H](O)C[C@@H]4C[C@H](O)CC[C@]4(C)[C@H]3CC[C@]12C` [URSODIOL], the activity at 100 µM in [1] is 45%.

On to `C[C@H](CCC(=O)NCC(=O)O)[C@H]1CC[C@H]2[C@@H]3[C@H](O)C[C@@H]4C[C@H](O)CC[C@]4(C)[C@H]3CC[C@]12C` [GLYCOCHENODEOXYCHOLATE], for which the activity at 100 µM in data set [2] came out at 14%.

With `C[C@H](CCC(=O)O)[C@H]1CC[C@H]2[C@@H]3[C@H](O)C[C@@H]4C[C@H](O)CC[C@]4(C)[C@H]3CC[C@]12C` [CHENODIOL], in [3], the Activity amounted to 13%.

`CCCCNc1cc(C(=O)O)cc(S(N)(=O)=O)c1Oc1ccccc1` [BUMETANIDE] showed an Activity in data set [4] of 71%.

With `C[C@H](CCC(=O)NCC(=O)O)[C@H]1CC[C@H]2[C@@H]3CC[C@@H]4C[C@H](O)CC[C@]4(C)[C@H]3CC[C@]12C` [LITHOGLYCOCHOLATE], the activity at 100 µM in data set [5] amounted to 24%.

On to `O=C1OC(c2ccc(O)c(S(=O)(=O)O)c2)(c2ccc(O)c(S(=O)(=O)O)c2)c2c(Br)c(Br)c(Br)c(Br)c21` [SULFOBROMOPHTHALEIN SODIUM], for which the activity at 100 µM in data set [6] turned out to be 41%.

For `C[C@H](CCC(=O)NCCS(=O)(=O)O)[C@H]1CC[C@H]2[C@@H]3CC[C@@H]4C[C@H](O)CC[C@]4(C)[C@H]3C[C@H](O)[C@]12C` [TAURODEOXYCHOLIC ACID], in data set [7], the Activity was 10%.

On to `C[C@H](CCC(=O)NCC(=O)O)[C@H]1CC[C@H]2[C@@H]3[C@H](O)C[C@@H]4C[C@H](O)CC[C@]4(C)[C@H]3C[C@H](O)[C@]12C` [GLYCOCHOLIC ACID], for which the Activity in data set [8] turned out to be 44%.

As for `C[C@H](CCC(=O)NCCS(=O)(=O)O)[C@H]1CC[C@H]2[C@@H]3CC[C@@H]4C[C@H](O)CC[C@]4(C)[C@H]3CC[C@]12C` [TAUROLITHOCHOLIC ACID], the activity at 100 µM in data set [9] worked out at 33%.

On to `C[C@H](CCC(=O)O)[C@H]1CC[C@H]2[C@@H]3CC[C@@H]4C[C@H](O)CC[C@]4(C)[C@H]3CC[C@]12C` [LITHOCHOLIC ACID], for which the activity at 100 µM in data set [10] stood at 63%.

As for `C[C@H](CCC(=O)NCCS(=O)(=O)O)[C@H]1CC[C@H]2[C@@H]3[C@H](O)C[C@@H]4C[C@H](O)CC[C@]4(C)[C@H]3CC[C@]12C` [TAUROCHENODEOXYCHOLATE], the Activity in data set [11] is reported as 19%.

In [12], `C[C@H](CCC(=O)NCCS(=O)(=O)O)[C@H]1CC[C@H]2[C@@H]3[C@@H](O)C[C@@H]4C[C@H](O)CC[C@]4(C)[C@H]3CC[C@]12C` [TAURURSODIOL] yielded an Activity of 8%.
